Measured values as given in patent US20100234314A1, “IDARUBICIN FOR THE TREATMENT OF LYMPHOMA IN A DOG” (priority 2007, published 2010).
Like-named read-outs stand apart in the source and are kept apart here.

Key:
[1] = system: ex-vivo derived canine lymphoma cells (nodal tissue); assay: In vitro anti-proliferation assay (MTS), ex vivo canine lymphoma nodal tissue; conditions: for Inhibition of the proliferation of canine lymphoma nodal tissues: summary; for IC50: read-out: Anti-proliferation IC50
Text: The study utilized an in vitro assay run with ex-vivo derived canine lymphoma cells and with established cell lines maintained over many passages using standard tissue culture techniques. Nodal tissues were obtained from canine lymphoma patients at the MSU Veterinary Clinic.
(2) Ex vivo canine lymphoma nodal tissue. Malignant lymph nodes were excised by veterinary staff at Michigan State University (MSU) Veterinary College, placed into transport media (Advanced RPMI 1640 complete medium supplemented with 10% Fetal Bovine Serum (FBS), 100 U/mL penicillin, 100 ug/mL streptomycin and 0.25 ug/mL Amphotercin B (Invitrogen/Gibco®). Nodes were processed within 24 hours of removal by mincing into tiny pieces and passing through a tissue sieve. Cell suspensions were spun at 200×g, supernatant was removed, and the cell pellet was resuspended in NH4Cl (0.15M) for 10 minutes at room temperature. The cell suspension was pelleted by centrifugation; the NH4Cl was removed and washed once with Hanks Balanced Salt Solution (HBSS), followed by re-suspension in Proliferation Medium (Advanced RPMI complete, 1% FBS, 50 nM 2-Mercaptoethanol, 100 U/mL penicillin, 100 ug/mL streptomycin and 0.25 ug/mL Amphotercin B). The cell suspension was then passed through a 100 μm nylon cell strainer (BD-Falcon) and counted using a hemacytometer. Cells were cultured in either Proliferation Medium alone, Proliferation Medium supplemented with 0.005% Pansorbin® (Heat inactivated, formalin-fixed Staphylococcus Aureus cells (SAC), Calbiochem), and 10 ng/mL canine IL-2 (R&D Systems), or Proliferation Medium supplemented with 125 ng/mL concavalin A (Sigma) and 125 ng/mL lipopolysaccamide (LPS; Calbiochem). (3) In vitro Anti-Proliferation Assay Method. Cells cultured in medium described above were plated in 96-well Costar plates (Corning) at a density of 1×10^3 cells/well (lymphoma cell lines) or 2×10^5 cells/well (lymph node cells) and exposed to various concentrations of test compounds for up to 5 days at 37° C. in a humidified incubator with 5% CO2. Effects on proliferation were determined using the CellTiter 96® Aqueous Non-Radioactive Cell Proliferation Assay (Promega) according to manufacturer's instructions. In general, proliferation was indirectly measured using a soluble tetrazolium salt (MTS) and an electron coupling agent. MTS bioreduction into a formazan product soluble in tissue culture medium was monitored by absorbance at 490 nm on a Spectramax plate reader using Softmax Pro 4.6 software (Molecular Devices). […] (4) Data Analysis: For nodal tissue, data were handled in the following manner through Prism 4.0 (Graphpad Software). Mean values from raw optical density values (OD) were calculated for the Un-stimulated, Simulated and all Drug Treatment (triplicates) and used in the following formula:
(Mean Drug Treatment OD−Mean Un-stim OD)×100=% Control Proliferation
(Mean Stim OD−Mean Un-stim OD)
Once calculated, these values for each drug concentration (or standard) were graphed and an IC50 calculated by a point to point analysis. Percent control values were not allowed to exceed 100% or fall below 0% for analysis of IC50 values.

[2] = system: CL-1 canine lymphoma cell line (T-cell LSA line); assay: In vitro anti-proliferation assay (MTS), CL-1 cell line; assay type: cell-based; conditions: Canis lupus familiaris; CL-1, T-cell LSA line
Text: (§1) (2) Ex vivo canine lymphoma nodal tissue. […] (3) In vitro Anti-Proliferation Assay Method.
(§2) (Mean Drug Treatment OD−Mean media blank OD)×100=% Control Proliferation
(§3) (Mean Untreated OD−Mean media blank OD)

[3] = system: canine lymphoma cell lines; assay: Anti-proliferation, canine lymphoma cell lines; assay type: cell-based; conditions: summary
Text: as §1, §2, §3

[4] = system: 3132 canine lymphoma cell line (B-cell LSA line); assay: In vitro anti-proliferation assay (MTS), 3132 cell line; assay type: cell-based; conditions: Canis lupus familiaris; 3132, B-cell LSA line
Text: as §1, §2, §3

[5] = Oral bioavailability in dogs, effect of feeding; assay type: in vivo; conditions: dog
[6] = MSU LN 1, chemotherapy resistant B-cell LSA, stimulant SAC + IL-2
[7] = MSU LN 1 ID618801, chemotherapy resistant B-cell LSA, stimulant LPS + ConA
[8] = MSU LN 6, chemotherapy resistant T-cell LSA, stimulant SAC + IL-2
[9] = MSU LN 6 ID401557, chemotherapy resistant T-cell LSA, stimulant LPS + ConA
[10] = MSU LN 7 ID663780, chemotherapy resistant T-cell LSA, stimulant LPS + ConA
[11] = MSU LN 8, de novo T-cell lymphoma, stimulant SAC + IL-2
[12] = MSU LN 8 ID668165, de novo T-cell lymphoma, stimulant LPS + ConA
[13] = MSU LN 10 ID401979, chemotherapy resistant B-cell LSA, stimulant LPS + ConA

IC50 [1, 6] | IC50 [1, 7] | IC50 [1, 8] | IC50 [1, 9] | IC50 [1, 10] | IC50 [1, 11] | IC50 [1, 12] | IC50 [1, 13] | IC50 [2] | IC50 ([1]; MSU LN 11 ID671795, de novo B-cell LSA, stimulant LPS + ConA) | IC50 ([1]; MSU LN 14 ID403527, de novo T-cell LSA, stimulant Con A) | IC50 [4] | SMILES | Inhibition of the proliferation of canine lymphoma nodal tissues [1] | Inhibition of the proliferation of canine lymphoma cell lines [3] | Potency and cytotoxicity compared with doxorubicin ([1]; all nodal and cell line lymphomas regardless of B or T-cell lineage) | Inhibition of proliferation compared with doxorubicin ([1]; all nodal tissue from dogs diagnosed with chemotherapy resistant lymphomas) | Oral bioavailability, effect of feeding [5]
11 nM | 55 nM | 13 nM | 28 nM | 10 nM | 7 nM | 9 nM | > 100 nM | 4.3 nM |  |  |  | COc1cccc2c1C(=O)c1c(O)c3c(c(O)c1C2=O)C[C@@](O)(C(=O)CO)C[C@@H]3O[C@H]1C[C@H](N)[C@H](O)[C@H](C)O1 [Doxorubicin, doxorubicin] | dose dependent inhibition | inhibited |  |  | 
7.5 nM | 7.5 nM | 2.5 nM | 3 nM | 2.5 nM | 3 nM | 4 nM | 56 nM | 1.9 nM | 4 nM | 11 nM | 2.7 nM | CC(=O)[C@]1(O)Cc2c(O)c3c(c(O)c2[C@@H](O[C@H]2C[C@H](N)[C@H](O)[C@H](C)O2)C1)C(=O)c1ccccc1C3=O [Idarubicin, idarubicin] | dose dependent inhibition | inhibited | more potent and cytotoxic than doxorubicin | more effective | not adversely affected by feeding
